What all share (type): cell-based
Test [1] has as its system S. uberis ATCC 19436. The experiment in a line: MIC by broth microdilution, S. uberis. The conditions noted are these: Streptococcus uberis. An outline of the steps: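 This broth microdilution assay used S. uberis ATCC 19436 in Todd Hewitt Broth, with zinc sulphate heptahydrate added where required to a final 50 μM. Inhibitor concentration ranges came from two-fold serial dilutions in 96-well flat bottom plates at 200 μl. Approximately 5×10^5 cfu/mL cells were incubated for 24 h at 37° C. and 200 rpm. Wells were then read at OD600 on a Varioskan Flash reader.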

The test system of test [2] is E. coli ATCC 10596. The experiment in a line: MIC by broth microdilution, E. coli. The settings on record: Escherichia coli. An outline of the steps: (§1)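 Media: TSB or CAMHB for S. aureus, LB or CAMHB for E. coli, with zinc sulphate to 50 μM final where required. Cells at ~5×10^5 cfu/mL met two-fold compound series; growth was scored by OD600 after 24 h shaking at 37° C.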

Test [3] concerns S. aureus ATCC 6538. The experiment in a line: MIC by broth microdilution, S. aureus. The conditions noted are these: Staphylococcus aureus. The procedure, abridged:
as §1

[4] abbreviates: ATCC19436, No Zinc, read-out: S. uberis ATCC 19436 MIC.
Setting [5] is: ATCC19436, Zinc (50 μM), read-out: S. uberis ATCC 19436 MIC.
Setting [6] is: ATCC 10536 / ATCC 10596, No Zinc, read-out: E. coli ATCC 10536 MIC.
The mark [7] stands for this setting: ATCC 10536 / ATCC 10596, Zinc (50 μM), read-out: E. coli ATCC 10536 MIC.
The mark [8] stands for this setting: ATCC6538, No Zinc, read-out: S. aureus ATCC 6538 MIC.
[9] abbreviates: ATCC6538, Zinc (50 μM), read-out: S. aureus ATCC 6538 MIC.

Converted amounts (≈) assume the structure as drawn. Where a name gives a salt, the structure may show the parent alone. Read-outs that look alike come from different tables or passages of the source. Where only a bound is given, the exact number is not on record here.

Turning to `CN(C)Cc1ccc2cccc(NS(=O)(=O)Cc3ccc(Cl)nc3)c2n1` [ZDR505, 1-(6-Chloropyridin-3-yl)-N-(2-((dimethylamino)methyl)quinolin-8-yl)methanesulfonamide], the MIC in test [1] (setting [4]) is over 256 mg/L; in test [1] (setting [5]) it was 0.25 mg/L (≈ 0.64 µM); in test [2] (setting [6]) it was over 256 mg/L; in test [2] (setting [7]) it was over 256 mg/L; in test [3] (setting [8]) it was over 256 mg/L; in test [3] (setting [9]), 256 mg/L (≈ 655 µM).

Take `CN(C)Cc1ccc2cccc(NS(=O)(=O)c3ccc([N+](=O)[O-])cc3)c2n1` [ZDR067, N-(2-((Dimethylamino)methyl)quinolin-8-yl)-4-nitrobenzenesulfonamide]: the MIC in test [1] (setting [4]) is 128 mg/L (≈ 331 µM); in test [1] (setting [5]), 0.125 mg/L (≈ 0.323 µM); in test [2] (setting [6]), over 256 mg/L; in test [2] (setting [7]), over 256 mg/L; in test [3] (setting [8]), 128 mg/L (≈ 331 µM); in test [3] (setting [9]), 256 mg/L (≈ 662 µM).

Regarding `NC(=O)N/N=C/c1ccc2cccc(NS(=O)(=O)c3ccc(C(F)(F)F)cc3)c2n1` [ZDR118, (E)-2-((8-((4-(Trifluoromethyl)phenyl)sulfonamido)quinolin-2-yl)methylene)hydrazine-1-carboxamide], the MIC was 32 mg/L (≈ 73.2 µM) in test [1] (setting [4]); 2 mg/L (≈ 4.57 µM) in test [1] (setting [5]); over 256 mg/L in test [2] (setting [6]); over 256 mg/L in test [2] (setting [7]); 128 mg/L (≈ 293 µM) in test [3] (setting [8]); 8 mg/L (≈ 18.3 µM) in test [3] (setting [9]).

Regarding `O=S(=O)(Nc1cccc2ccc(CNCc3ccco3)nc12)c1ccc(C(F)(F)F)cc1` [ZDR106, N-(2-(((Furan-2-ylmethyl)amino)methyl)quinolin-8-yl)-4-(trifluoromethyl)benzenesulfonamide], the MIC is 64 mg/L (≈ 139 µM) in test [1] (setting [4]); 0.25 mg/L (≈ 0.542 µM) in test [1] (setting [5]); over 256 mg/L in test [2] (setting [6]); over 256 mg/L in test [2] (setting [7]); over 256 mg/L in test [3] (setting [8]); over 256 mg/L in test [3] (setting [9]).

As to `CN(C)Cc1ccc2cccc(NS(=O)(=O)c3cccc(S(C)(=O)=O)c3)c2n1` [ZDR310, N-(2-((Dimethylamino)methyl)quinolin-8-yl)-3-(methylsulfonyl)benzenesulfonamide], the MIC was 256 mg/L (≈ 610 µM) in test [1] (setting [4]); 4 mg/L (≈ 9.53 µM) in test [1] (setting [5]); over 256 mg/L in test [2] (setting [6]); over 256 mg/L in test [2] (setting [7]); over 256 mg/L in test [3] (setting [8]); over 256 mg/L in test [3] (setting [9]).

As to `O=C(N/N=C/c1ccc2cccc(NS(=O)(=O)c3ccc(C(F)(F)F)cc3)c2n1)c1ccccc1` [ZDR045, (E)-N-(2-((2-Benzoylhydrazono)methyl)quinolin-8-yl)-4-(trifluoromethyl)benzenesulfonamide], the minimal inhibitory concentration (MIC) in test [1] (setting [4]) was over 256 mg/L; in test [1] (setting [5]), 0.125 mg/L (≈ 0.251 µM); in test [2] (setting [6]), over 256 mg/L; in test [2] (setting [7]), over 256 mg/L; in test [3] (setting [8]), over 256 mg/L; in test [3] (setting [9]) it was over 256 mg/L.

Take `COC(=O)c1ccc(S(=O)(=O)Nc2cccc3ccc(CN(C)C)nc23)cc1` [ZDR069, Methyl 4-(N-(2-((dimethylamino)methyl)quinolin-8-yl)sulfamoyl)benzoate]: the minimal inhibitory concentration (MIC) in test [1] (setting [4]) is over 256 mg/L; in test [1] (setting [5]) it was 0.25 mg/L (≈ 0.626 µM); in test [2] (setting [6]), over 256 mg/L; in test [2] (setting [7]), over 256 mg/L; in test [3] (setting [8]), 256 mg/L (≈ 641 µM); in test [3] (setting [9]), over 256 mg/L.

Take `CN(C)Cc1ccc2cccc(NS(=O)(=O)C(F)(F)F)c2n1` [ZDR079, N-(2-((Dimethylamino)methyl)quinolin-8-yl)-1,1,1-trifluoromethanesulfonamide]: the MIC in test [1] (setting [4]) is over 256 mg/L; in test [1] (setting [5]), 0.5 mg/L (≈ 1.5 µM); in test [2] (setting [6]) it was over 256 mg/L; in test [2] (setting [7]), 64 mg/L (≈ 192 µM); in test [3] (setting [8]), over 256 mg/L; in test [3] (setting [9]) it was 256 mg/L (≈ 768 µM).

Turning to `O=S(=O)(Nc1cccc2ccc(CNCC3CCCCC3)nc12)c1ccc(C(F)(F)F)cc1` [ZDR406, N-(2-(((Cyclohexylmethyl)amino)methyl)quinolin-8-yl)-4-(trifluoromethyl)benzenesulfonamide], the MIC in test [1] (setting [4]) came to 16 mg/L (≈ 33.5 µM); in test [1] (setting [5]), 0.125 mg/L (≈ 0.262 µM); in test [2] (setting [6]) it was 64 mg/L (≈ 134 µM); in test [2] (setting [7]) it was 256 mg/L (≈ 536 µM); in test [3] (setting [8]), 32 mg/L (≈ 67 µM); in test [3] (setting [9]), 128 mg/L (≈ 268 µM).

As to `CC(C)(C)OC(=O)CNCc1ccc2cccc(NS(=O)(=O)c3ccc(C(F)(F)F)cc3)c2n1` [ZDR041, N-(2-(((tert-Butoxycarbonylmethyl)amino)methyl)quinolin-8-yl)-4-(trifluoromethyl)benzenesulfonamide], the minimal inhibitory concentration (MIC) in test [1] (setting [4]) is over 256 mg/L; in test [1] (setting [5]), 0.5 mg/L (≈ 1.01 µM); in test [2] (setting [6]) it was over 256 mg/L; in test [2] (setting [7]), over 256 mg/L; in test [3] (setting [8]), 64 mg/L (≈ 129 µM); in test [3] (setting [9]), over 256 mg/L.

Turning to `COc1ccc(S(=O)(=O)Nc2cccc3ccc(CN(C)C)nc23)cn1` [ZDR258, N-(2-((Dimethylamino)methyl)quinolin-8-yl)-6-methoxypyridine-3-sulfonamide], the MIC is 256 mg/L (≈ 687 µM) in test [1] (setting [4]); 0.125 mg/L (≈ 0.336 µM) in test [1] (setting [5]); over 256 mg/L in test [2] (setting [6]); over 256 mg/L in test [2] (setting [7]); over 256 mg/L in test [3] (setting [8]); over 256 mg/L in test [3] (setting [9]).

On to `O=S(=O)(Nc1cccc2ccc(CNC3CCCCC3)nc12)c1ccc(C(F)(F)F)cc1` [ZDR405, N-(2-((Cyclohexylamino)methyl)quinolin-8-yl)-4-(trifluoromethyl)benzenesulfonamide], for which the MIC in test [1] (setting [4]) was 16 mg/L (≈ 34.5 µM); in test [1] (setting [5]), 0.125 mg/L (≈ 0.27 µM); in test [2] (setting [6]), 128 mg/L (≈ 276 µM); in test [2] (setting [7]) it was over 256 mg/L; in test [3] (setting [8]), 64 mg/L (≈ 138 µM); in test [3] (setting [9]) it was 128 mg/L (≈ 276 µM).

On to `CN(C)Cc1ccc2cccc(NS(=O)(=O)c3ccccc3C(F)(F)F)c2n1` [ZDR075, N-(2-((Dimethylamino)methyl)quinolin-8-yl)-2-(trifluoromethyl)benzenesulfonamide], for which the MIC is 256 mg/L (≈ 625 µM) in test [1] (setting [4]); 0.125 mg/L (≈ 0.305 µM) in test [1] (setting [5]); over 256 mg/L in test [2] (setting [6]); over 256 mg/L in test [2] (setting [7]); over 256 mg/L in test [3] (setting [8]); over 256 mg/L in test [3] (setting [9]).

`COC(=O)Nc1ccc(S(=O)(=O)Nc2cccc3ccc(CN(C)C)nc23)cc1` [ZDR332, Methyl (4-(N-(2-((dimethylamino)methyl)quinolin-8-yl)sulfamoyl)phenyl)carbamate]: the MIC is 256 mg/L (≈ 618 µM) in test [1] (setting [4]); 2 mg/L (≈ 4.83 µM) in test [1] (setting [5]); over 256 mg/L in test [2] (setting [6]); over 256 mg/L in test [2] (setting [7]); over 256 mg/L in test [3] (setting [8]); over 256 mg/L in test [3] (setting [9]).

For `CN(C)Cc1ccc2cccc(NS(=O)(=O)c3ccccc3OC(F)(F)F)c2n1` [ZDR191, N-(2-((Dimethylamino)methyl)quinolin-8-yl)-2-(trifluoromethoxy)benzenesulfonamide], the MIC in test [1] (setting [4]) was 256 mg/L (≈ 602 µM); in test [1] (setting [5]) it was 0.125 mg/L (≈ 0.294 µM); in test [2] (setting [6]), over 256 mg/L; in test [2] (setting [7]), over 256 mg/L; in test [3] (setting [8]), over 256 mg/L; in test [3] (setting [9]) it was over 256 mg/L.

Regarding `O=S(=O)(Nc1cccc2ccc(CNc3ccccc3)nc12)c1ccc(C(F)(F)F)cc1` [ZDR108, N-(2-((Phenylamino)methyl)quinolin-8-yl)-4-(trifluoromethyl)benzenesulfonamide], the MIC is over 256 mg/L in test [1] (setting [4]); 0.25 mg/L (≈ 0.546 µM) in test [1] (setting [5]); over 256 mg/L in test [2] (setting [6]); over 256 mg/L in test [2] (setting [7]); 64 mg/L (≈ 140 µM) in test [3] (setting [8]); over 256 mg/L in test [3] (setting [9]).

Take `CN(C)Cc1ccc2cccc(NS(=O)(=O)c3ccc(O)cc3)c2n1` [ZDR164, N-(2-((Dimethylamino)methyl)quinolin-8-yl)-4-hydroxybenzenesulfonamide]: the MIC in test [1] (setting [4]), in test [1] (setting [5]), in test [2] (setting [6]), in test [2] (setting [7]), in test [3] (setting [8]) and in test [3] (setting [9]) was over 256 mg/L throughout.

On to `CO/N=C/c1ccc2cccc(NS(=O)(=O)c3ccc(C(F)(F)F)cc3)c2n1` [ZDR126, (E)-N-(2-((Methoxyimino)methyl)quinolin-8-yl)-4-(trifluoromethyl)benzenesulfonamide], for which the MIC in test [1] (setting [4]) is over 256 mg/L; in test [1] (setting [5]), 0.125 mg/L (≈ 0.305 µM); in test [2] (setting [6]) it was over 256 mg/L; in test [2] (setting [7]), over 256 mg/L; in test [3] (setting [8]) it was over 256 mg/L; in test [3] (setting [9]), over 256 mg/L.

`O=C(CNCc1ccc2cccc(NS(=O)(=O)c3ccc(C(F)(F)F)cc3)c2n1)NO` [ZDR267, N-hydroxy-2-(((8-((4-(trifluoromethyl)phenyl)sulfonamido)quinolin-2-yl)methyl)amino)acetamide trifluoroacetate]: the MIC was 256 mg/L in test [1] (ATCC19436, read-out: S. uberis ATCC 19436 MIC, No Zinc); 256 mg/L in test [1] (ATCC19436, read-out: S. uberis ATCC 19436 MIC, Zinc (50 μM)); over 256 mg/L in test [2] (ATCC 10536 / ATCC 10596, read-out: E. coli ATCC 10536 MIC, No Zinc); over 256 mg/L in test [2] (ATCC 10536 / ATCC 10596, read-out: E. coli ATCC 10536 MIC, Zinc (50 μM)); 256 mg/L in test [3] (ATCC6538, read-out: S. aureus ATCC 6538 MIC, No Zinc); 128 mg/L in test [3] (ATCC6538, read-out: S. aureus ATCC 6538 MIC, Zinc (50 μM)).

These data come from patent publication US11691949B2, “Quinoline sulfonamide compounds and their use as antibacterial agents” (OTAGO INNOVATION LIMITED, priority 2017, dated 2023).
